Measurements: PubChem BioAssay AID330 (DTP/NCI, 2004)
Where “and” joins values, the source holds several entries; their conditions need not be identical. Equal entries are not always repeated. Inconclusive results and toxic doses are left out.

System: P388 leukemia ip, CD2F1 mice, survival T/C
Test: NCI In Vivo Anticancer Drug Screen. Data for tumor model P388 Leukemia (intraperitoneal) in CD2F1 (CDF1) mice
Settings: endpoint: median survival time, higher = longer survival
Method in brief: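 Mice carrying the transplanted tumor received test compound or vehicle. Survival was recorded in each group, and the value is the treated-group measurement divided by that of the vehicle-treated control group.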

[1] = dose: 50.0 mg/kg/injection, schedule: Q01DX005 (ip), vehicle: Klucel (hydroxypropylcellulose) (HPC)
[2] = dose: 100.0 mg/kg/injection, schedule: Q01DX005 (ip), vehicle: Klucel (hydroxypropylcellulose) (HPC)
[3] = dose: 200.0 mg/kg/injection, schedule: Q01DX005 (ip), vehicle: Klucel (hydroxypropylcellulose) (HPC)
[4] = dose: 25.0 mg/kg/injection, schedule: Q01DX005 (ip), vehicle: Klucel (hydroxypropylcellulose) (HPC)

O=C(NC(Cc1ccc(I)cc1)C(=O)O)c1ccc(Br)cc1 (configuration not stated)
T/C (dose: 12.5 mg/kg/injection, schedule: Q01DX005 (ip), vehicle: sodium bicarbonate): 104 % of control
T/C (dose: 25.0 mg/kg/injection, schedule: Q01DX005 (ip), vehicle: sodium bicarbonate): 100 % of control
T/C [1]: 98 % of control
T/C (dose: 50.0 mg/kg/injection, schedule: Q01DX005 (ip), vehicle: sodium bicarbonate): 94 % of control
T/C [2]: 98 % of control
T/C (dose: 100.0 mg/kg/injection, schedule: Q01DX005 (ip), vehicle: sodium bicarbonate): 90 % of control and 94 % of control
T/C [3]: 101 % of control

O=C(Nc1ccccc1)/C(N=Nc1ccc([N+](=O)[O-])cc1Cl)=N/Nc1ccccc1S(=O)(=O)O
T/C [1]: 102 % of control
T/C [2]: 101 % of control
T/C [3]: 91 % of control

CCCNC(=O)OCc1c(COC(=O)NCCC)c(-c2ccc(Cl)c(Cl)c2)n2c1CCC2
T/C (dose: 12.5 mg/kg/injection, schedule: Q01DX009 (ip), vehicle: distilled water + Tween-80): 120 % of control
T/C (dose: 20.0 mg/kg/injection, schedule: Q01DX009 (ip), vehicle: distilled water + Tween-80): 154 % of control
T/C (dose: 40.0 mg/kg/injection, schedule: Q01DX009 (ip), vehicle: distilled water + Tween-80): 154 % of control and 172 % of control
T/C (dose: 50.0 mg/kg/injection, schedule: Q01DX009 (ip), vehicle: distilled water + Tween-80): 166 % of control
T/C (dose: 80.0 mg/kg/injection, schedule: Q01DX009 (ip), vehicle: distilled water + Tween-80): 102 % of control and 91 % of control
T/C (dose: 100.0 mg/kg/injection, schedule: Q01DX009 (ip), vehicle: distilled water + Tween-80): 95 % of control

Nc1cc2c(c[n+](CCCCCCCCCC[n+]3cc4c5ccccc5c(N)cc4c4ccccc43)c3ccccc23)c2ccccc12
T/C (dose: 0.78 mg/kg/injection, schedule: Q04DX003 (ip), vehicle: other): 118 % of control
T/C (dose: 12.5 mg/kg/injection, schedule: Q04DX003 (ip), vehicle: distilled water + Tween-80): 166 % of control
T/C (dose: 25.0 mg/kg/injection, schedule: Q04DX003 (ip), vehicle: distilled water + Tween-80): 159 % of control
T/C (dose: 25.0 mg/kg/injection, schedule: Q04DX003 (ip), vehicle: other): 160 % of control and 166 % of control
T/C (dose: 50.0 mg/kg/injection, schedule: Q04DX003 (ip), vehicle: distilled water + Tween-80): 165 % of control
T/C (dose: 50.0 mg/kg/injection, schedule: Q04DX003 (ip), vehicle: other): 157 % of control and 160 % of control
T/C (dose: 100.0 mg/kg/injection, schedule: Q04DX003 (ip), vehicle: distilled water + Tween-80): 161 % of control
T/C (dose: 200.0 mg/kg/injection, schedule: Q04DX003 (ip), vehicle: distilled water + Tween-80): 161 % of control
T/C (dose: 200.0 mg/kg/injection, schedule: Q04DX003 (ip), vehicle: other): 169 % of control
T/C (dose: 400.0 mg/kg/injection, schedule: Q04DX003 (ip), vehicle: distilled water + Tween-80): 175 % of control

O=c1cc(-c2ccc3ccccc3n2)oc2ccc(Cl)cc12
T/C (dose: 10.0 mg/kg/injection, schedule: Q01DX009 (ip), vehicle: saline): 107 % of control
T/C (dose: 20.0 mg/kg/injection, schedule: Q01DX009 (ip), vehicle: saline): 93 % of control
T/C (dose: 40.0 mg/kg/injection, schedule: Q01DX009 (ip), vehicle: saline): 89 % of control

O=C(c1ccc2cc(Cl)c(Cl)cc2c1)C(Cl)Cl
T/C (dose: 1.56 mg/kg/injection, schedule: Q01DX009 (ip), vehicle: Klucel (hydroxypropylcellulose) (HPC)): 116 % of control
T/C (dose: 3.12 mg/kg/injection, schedule: Q01DX009 (ip), vehicle: Klucel (hydroxypropylcellulose) (HPC)): 104 % of control
T/C (dose: 6.25 mg/kg/injection, schedule: Q01DX009 (ip), vehicle: Klucel (hydroxypropylcellulose) (HPC)): 101 % of control and 97 % of control
T/C (dose: 12.5 mg/kg/injection, schedule: Q01DX009 (ip), vehicle: Klucel (hydroxypropylcellulose) (HPC)): 88 % of control

COc1ccc(-n2cccc2/C=N\O)cc1OC
T/C (dose: 60.0 mg/kg/injection, schedule: Q01DX005 (ip), vehicle: saline with Tween-80): 93 % of control
T/C (dose: 120.0 mg/kg/injection, schedule: Q01DX005 (ip), vehicle: saline with Tween-80): 94 % of control
T/C (dose: 240.0 mg/kg/injection, schedule: Q01DX005 (ip), vehicle: saline with Tween-80): 93 % of control

N=c1oc(-c2ccccc2)cc2ccccc12
T/C (dose: 6.25 mg/kg/injection, schedule: Q01DX005 (ip), vehicle: Klucel (hydroxypropylcellulose) (HPC)): 104 % of control
T/C (dose: 12.5 mg/kg/injection, schedule: Q01DX005 (ip), vehicle: Klucel (hydroxypropylcellulose) (HPC)): 100 % of control
T/C [4]: 104 % of control

Cc1ccc(-c2cc(=O)c3cccc(CC(=O)O)c3o2)cc1
T/C [4]: 112 % of control and 89 % of control
T/C [1]: 104 % of control and 118 % of control
T/C [2]: 119 % of control and 90 % of control

COC(=O)CC[C@@H]1C(C)=CC(=O)[C@@]2(F)[C@H]1CCC1=CC(=O)C=C[C@@]12C
T/C [1]: 108 % of control
T/C [2]: 100 % of control
T/C [3]: 109 % of control

C=Cc1c(C)c(O)cc2c1-c1ccc(O)c(C)c1CC2
T/C (dose: 25.0 mg/kg/injection, schedule: Q01DX009 (ip), vehicle: Klucel (hydroxypropylcellulose) (HPC)): 104 % of control
T/C (dose: 50.0 mg/kg/injection, schedule: Q01DX009 (ip), vehicle: Klucel (hydroxypropylcellulose) (HPC)): 100 % of control
T/C (dose: 100.0 mg/kg/injection, schedule: Q01DX009 (ip), vehicle: Klucel (hydroxypropylcellulose) (HPC)): 92 % of control
T/C (dose: 200.0 mg/kg/injection, schedule: Q01DX009 (ip), vehicle: Klucel (hydroxypropylcellulose) (HPC)): 93 % of control

COc1cccc2c1C(=O)c1c(O)c3c(c(O)c1C2=O)C[C@@H](C(=O)CO)C[C@@H]3OC1CC(N)C(O)C(C)O1 (some centres not stated)
T/C (dose: 6.25 mg/kg/injection, schedule: Q04DX003 (ip), vehicle: water): 105 % of control
T/C (dose: 12.5 mg/kg/injection, schedule: Q04DX003 (ip), vehicle: water): 105 % of control
T/C (dose: 25.0 mg/kg/injection, schedule: Q04DX003 (ip), vehicle: water): 124 % of control

Cc1coc2c1C(=O)C(=O)c1c-2ccc2c1CCCC2(C)CO (configuration not stated) (tested in a mixture with another compound)
T/C (dose: 100.0 mg/kg/injection, schedule: Q01DX009 (ip), vehicle: saline with Tween-80): 95 % of control
T/C (dose: 400.0 mg/kg/injection, schedule: Q01DX009 (ip), vehicle: saline with Tween-80): 90 % of control

COc1cccc(/C=N/NC(=S)Nc2cc(C(F)(F)F)cc(C(F)(F)F)c2)c1O
T/C [4]: 93 % of control
T/C [1]: 100 % of control and 93 % of control

COc1cc([N+](=O)[O-])c2nc(Cl)ccc2c1[N+](=O)[O-]
T/C (dose: 1.56 mg/kg/injection, schedule: Q01DX009 (ip), vehicle: other): 96 % of control
T/C (dose: 3.13 mg/kg/injection, schedule: Q01DX009 (ip), vehicle: other): 97 % of control
T/C (dose: 6.25 mg/kg/injection, schedule: Q01DX009 (ip), vehicle: other): 104 % of control
T/C (dose: 12.5 mg/kg/injection, schedule: Q01DX009 (ip), vehicle: other): 94 % of control
T/C (dose: 50.0 mg/kg/injection, schedule: Q01DX009 (ip), vehicle: other): 99 % of control

CCCCNC(=O)C(C)O (configuration not stated)
T/C (dose: 50.0 mg/kg/injection, schedule: Q01DX005 (ip), vehicle: saline): 101 % of control
T/C (dose: 100.0 mg/kg/injection, schedule: Q01DX005 (ip), vehicle: saline): 99 % of control
T/C (dose: 200.0 mg/kg/injection, schedule: Q01DX005 (ip), vehicle: saline): 92 % of control

C=C(CC)C(=O)OCC
T/C (dose: 50.0 mg/kg/injection, schedule: Q01DX009 (ip), vehicle: saline): 95 % of control
T/C (dose: 100.0 mg/kg/injection, schedule: Q01DX009 (ip), vehicle: saline): 102 % of control
T/C (dose: 200.0 mg/kg/injection, schedule: Q01DX009 (ip), vehicle: saline): 104 % of control

O=C(CCl)c1ccc2c(c1)N(C(=O)COc1ccccc1)c1ccccc1S2
T/C (dose: 50.0 mg/kg/injection, schedule: Q01DX001 (ip), vehicle: Klucel (hydroxypropylcellulose) (HPC)): 89 % of control
T/C (dose: 100.0 mg/kg/injection, schedule: Q01DX001 (ip), vehicle: Klucel (hydroxypropylcellulose) (HPC)): 91 % of control
T/C (dose: 200.0 mg/kg/injection, schedule: Q01DX001 (ip), vehicle: Klucel (hydroxypropylcellulose) (HPC)): 96 % of control

C/C=C(\C)C(=O)OC1C2C(C)=CC(O)C(O)C2(C)C2C3(O)OCC24C(CC(=O)OC14)C(C)C3O (configuration not stated)
T/C (dose: 0.25 mg/kg/injection, schedule: Q01DX009 (ip), vehicle: Klucel (hydroxypropylcellulose) (HPC)): 109 % of control
T/C (dose: 0.5 mg/kg/injection, schedule: Q01DX009 (ip), vehicle: Klucel (hydroxypropylcellulose) (HPC)): 101 % of control
T/C (dose: 1.0 mg/kg/injection, schedule: Q01DX009 (ip), vehicle: Klucel (hydroxypropylcellulose) (HPC)): 104 % of control
T/C (dose: 2.0 mg/kg/injection, schedule: Q01DX009 (ip), vehicle: Klucel (hydroxypropylcellulose) (HPC)): 104 % of control

CC(=O)N1C(C(=O)O)Cc2c([nH]c3ccccc23)C1(C)C (configuration not stated)
T/C (dose: 100.0 mg/kg/injection, schedule: Q01DX001 (ip), vehicle: suspension in saline): 108 % of control
T/C (dose: 200.0 mg/kg/injection, schedule: Q01DX001 (ip), vehicle: suspension in saline): 95 % of control
T/C (dose: 400.0 mg/kg/injection, schedule: Q01DX001 (ip), vehicle: suspension in saline): 107 % of control
